Test results as given in paper PMC3708395, “Hepatoprotective and Antioxidant Effects of Saponarin, Isolated from Gypsophila trichotoma Wend. on Paracetamol-Induced Liver Damage in Rats” (BioMed Research International, 2013).
Values joined by “and” are separate entries in the source; they are usually repeats but may differ in a detail not shown here. Identical values can stand only once. “Also recorded” adds a separate entry of the source.

Columns and labels:
[1] = system: Male Wistar rats; experiment: Lipid peroxidation (MDA) in rat liver homogenate, in vivo paracetamol model; conditions: for MDA: rat liver homogenate
Method: The animals were divided into six groups (n = 6). […] The animals in all groups were sacrificed on the eighth day of the beginning of the experiment. Livers were taken for assessment of biochemical parameters. For all following experiments the excised livers were washed out with cold saline solution (0.9% NaCl), blotted dray, weighed, and homogenized with appropriate buffers. Lipid peroxidation was determined by measuring the rate of production of thiobarbituric acid reactive substances (TBARS) (expressed as malondialdehyde (MDA) equivalents) described by Polizio and Peña with slight modifications. Briefly one volume of homogenate was mixed with 1 mL 25% trichloroacetic acid (TCA) and 1 mL 0.67% thiobarbituric acid (TBA). Samples were then mixed thoroughly, heated for 20 min in a boiling water bath, cooled and centrifuged at 4000 rpm for 20 min. The absorbance of supernatant was measured at 535 nm against a blank that contained all the reagents except the tissue homogenate. MDA concentration was calculated using a molar extinction coefficient of 1.56 × 10^5 M^−1 cm^−1 and expressed in nmol/g wet tissue.

[2] = system: Male Wistar rats; experiment: Histopathological study of liver; assay type: in vivo, rat
Text: The animals were divided into six groups (n = 6). […] The animals in all groups were sacrificed on the eighth day of the beginning of the experiment. Livers were taken for assessment of biochemical parameters. For all following experiments the excised livers were washed out with cold saline solution (0.9% NaCl), blotted dray, weighed, and homogenized with appropriate buffers. For light microscopic evaluation, liver tissues were fixed in 10% buffered formalin and then thin sections (4 μm) were subsequently stained with hematoxylin/eosin for general histological features determination. Sections were studied under light microscope Leica DM 500.

[3] = system: Male Wistar rats; experiment: Antioxidant enzyme activities (SOD, CAT, GPx, GR, GST) in rat liver homogenate, in vivo paracetamol model; conditions: for CAT / GPx / GR / GST / SOD: rat liver homogenate
Text: The animals were divided into six groups (n = 6). […] The animals in all groups were sacrificed on the eighth day of the beginning of the experiment. Livers were taken for assessment of biochemical parameters. For all following experiments the excised livers were washed out with cold saline solution (0.9% NaCl), blotted dray, weighed, and homogenized with appropriate buffers. The livers were rinsed in ice-cold physiological saline and minced with scissors. […] Catalase (CAT) activity was determined by measuring the decrease in absorbance at 240 nm. […] SOD activity was expressed as nmol of epinephrine that are prevented from autoxidation after addition of the sample. […] The rate of disappearance of NADPH with time was determined by monitoring absorbance at 340 nm. Results are expressed in nmol/mg. Glutathione reductase activity (GR) was measured according to the method of Pinto et al. by following NADPH oxidation spectrophotometrically at 340 nm and using an extinction coefficient of 6.22 mM^−1 cm^−1. […] The enzyme activity is expressed as nmol of CDNB-GSH conjugate formed/min/mg protein.

[4] = system: Male Wistar rats; experiment: GSH level in rat liver homogenate, in vivo paracetamol model; conditions: for GSH: rat liver homogenate
Method: The animals were divided into six groups (n = 6). […] The animals in all groups were sacrificed on the eighth day of the beginning of the experiment. Livers were taken for assessment of biochemical parameters. For all following experiments the excised livers were washed out with cold saline solution (0.9% NaCl), blotted dray, weighed, and homogenized with appropriate buffers. GSH was assessed by measuring nonprotein sulfhydryls after precipitation of proteins with TCA, using the method described by Bump et al.. Briefly, tissues were homogenized in 5% trichloroacetic acid (TCA) and centrifugated for 20 min at 4 000 ×g. […] The absorbance was determined at 412 nm and the results expressed as nmol/g wet tissue.

[5] = system: Male Wistar rats; experiment: Phase I of biotransformation: cytochrome P450, EMND and AH in rat liver microsomes after in vivo treatment
Method: The animals were divided into six groups (n = 6). […] The animals in all groups were sacrificed on the eighth day of the beginning of the experiment. Livers were taken for assessment of biochemical parameters. For all following experiments the excised livers were washed out with cold saline solution (0.9% NaCl), blotted dray, weighed, and homogenized with appropriate buffers. The excised, perfused, and minced livers were homogenized with 3 mL of 1.17% KCl than centrifugated at 10 000 ×g for 30 min. The supernatant fractions were further centrifugated at 105 000 ×g for 60 min. The resulting microsomal pellets were stored at −20°C until assayed. At the day of assay the microsomal pellets were resuspended and diluted with phosphate buffer EDTA (pH = 7.4). Liver protein concentration was measured, using the method of Lowry and was adjusted to 4 mg/mL. (1) Assessment of Cytochrome P450 Quantity. Cytochrome P450 was quantified spectrophotometrically as a complex with CO at 450 nm and expressed as nmol/mg^−1 protein [28]. […] The method used 4-hydroxylation of aniline to 4-aminophenol that is chemically converted to a phenol-indophenol complex with an absorption maximum at 630 nm. Enzyme activity was expressed as nmol/min/mg. […] The enzyme activity was evaluated by the formation of formaldehyde, trapped in the solution as semicarbazone, and measured by the colorimetric procedure of Nash, at 415 nm. Enzyme activity was expressed as nmol/min/mg.

[6] = system: isolated rat hepatocytes; experiment: Paracetamol-induced model of toxicity in isolated rat hepatocytes; conditions: 30 min preincubation with saponarin 60–0.006 μg/mL, then paracetamol 100 μmol for one hour; concentration-dependent
Method: The effect of saponarin was compared to those of silymarin (50–0.005 μg/mL). The following parameters were measured to assess the functional status of hepatocytes: cell viability, lactate dehydrogenase (LDH) activity, reduced glutathione (GSH) levels, and malondialdehyde (MDA) quantity. Cell viability was assessed by Trypan blue exclusion method [19]. The dye was used at a final concentration of 0.05% and cells were counted under light microscope (×100). At the end of incubation, the cells were recovered via centrifugation at 400 ×g at 4°C. The supernatant was used for LDH and MDA assessment as described by Bergmeyer et al. [21] and Fau at al. [19], respectively. GSH measurement following the method used by Fau at al. [19] was assessed in the sediment.

[7] = design: method as in earlier work; conditions: concentration range 0.5 mg/mL; cited from earlier work
[8] = paracetamol 600 mg/kg i.p. alone
[9] = paracetamol 600 mg/kg i.p. alone, compared to control animals
[10] = rat liver microsomes, saponarin 80 mg/kg bw/day p.o. 7 days, alone
[11] = saponarin alone 80 mg/kg p.o. 7 days, vs control
[12] = saponarin 80 mg/kg bw/day p.o. 7 days, alone
[13] = saponarin 80 mg/kg p.o. 7 days pretreatment then paracetamol 600 mg/kg i.p.
[14] = saponarin pretreatment seven days then single i.p. paracetamol, compared to paracetamol alone

## CC(=O)Nc1ccc(O)cc1 [paracetamol]
[1]; paracetamol 600 mg/kg i.p. alone, vs control animals
  increase of MDA level in rat liver homogenate: 30%
[1]; [8]
  MDA: 0.854 ± 0.04 nmol/g protein
[2]; paracetamol 600 mg/kg i.p. alone, hematoxylin/eosin, light microscopy
  liver histopathology: treatment-related changes associated with hepatotoxicity; also recorded: centriacinar and microvesicular accumulation of fats
[3]; [9]
  decrease in CAT activity: 27%
  decrease in GPx activity: 31-32%
  decrease in GR activity: 38%
  decrease in GST activity: 31% and 31-32%
[3]; [8]
  CAT: 88.3 ± 10 μmol H2O2/min/mg protein
  GPx: 0.089 ± 0.01 nmol/min/mg protein
  GR: 0.137 ± 0.02 nmol/min/mg protein
  GST: 0.160 ± 0.01 nmol CDNB-GSH conjugate formed/min/mg protein
  SOD: 0.114 ± 0.012 nmol/min/mg protein
[4]; [9]
  reduction in GSH levels in rat liver homogenate: 83%
[4]; [8]
  GSH: 0.96 ± 0.05 nmol/g protein

## apigenin 6-C-glucosyl-7-O-glucoside [saponarin]
[5]; [10]
  AH activity: 0.047 ± 0.004 nmol/mg protein
  Cytochrome P450: 0.244 ± 0.05 nmol/mg protein
  EMND activity: 0.371 ± 0.011 nmol/mg protein
[5]; [11]
  decrease in AH activity: 37%
  decrease in EMND activity: 24%
  decrease in total P450 quantity: 25%
[1]; [12]
  MDA: 0.635 ± 0.07 nmol/g protein
[1]; [13]
  MDA content relative to control level: restored to the control level
[1]; saponarin 80 mg/kg p.o. 7 days pretreatment then paracetamol 600 mg/kg i.p., compared to PC-treated group
  reduction of MDA in rat liver homogenate: 18%
[6]
  protection against paracetamol-induced injury (cell viability, LDH activity, MDA quantity, GSH levels): prevented the liver injury
[2]; rats pretreated with saponarin (80 mg/kg p.o. 7 days) then challenged with paracetamol 600 mg/kg i.p.
  liver histopathology: lower intensity of mononuclear accumulations and the presence of single cells showing intracellular oedema; also recorded: significant improvement of hepatocellular architecture
[3]; [12]
  CAT: 110.4 ± 16 μmol H2O2/min/mg protein
  GPx: 0.125 ± 0.02 nmol/min/mg protein
  GR: 0.207 ± 0.03 nmol/min/mg protein
  GST: 0.208 ± 0.02 nmol CDNB-GSH conjugate formed/min/mg protein
  SOD: 0.158 ± 0.015 nmol/min/mg protein
[3]; [14]
  increase in GPx activity: 21%
  increase in GR activity: 39%
  increase in GST activity: 21%
  increase in SOD activity: 24%
[4]; [12]
  GSH: 5.14 ± 0.31 nmol/g protein
[4]; [13]
  GSH levels compared to the paracetamol-only group: significantly higher levels of GSH
[7]
  inhibition of DPPH radical: 88.8%
